Test results: US9265253B2, “Use of macrocyclic picolinamides as fungicides” (DOW AGROSCIENCES LLC, priority 2013, dated 2016)

What follows are compounds tested on Mycosphaerella graminicola; Anamorph: Septoria tritici (assay: Leaf Blotch of Wheat (SEPTTR) disease control). Settings: Zymoseptoria tritici, 24 h, 1 Day Protectant, rate 100 ppm; read-out: SEPTTR 1 DP disease control.
Assay type: in vivo
Procedure, shortened: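 Percent disease control is derived from Septoria tritici leaf blotch severity (0 to 100 percent) on treated versus untreated wheat seedlings. Plants get fungicide spray to run-off, with inoculation either preceding or following application, then humid incubation at 20° C.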

Question: `CCCO[C@@H]1[C@@H](CC2CCCC2)CCC[C@H](NC(=O)c2nccc(OC)c2O)C(=O)O[C@H]1C` [Compound F36] was tested. Which pest or weed control at 100 ppm did it give?
Answer: The pest or weed control at 100 ppm was 80 to 100%.

Question: With `COc1ccnc(C(=O)N[C@H]2CCC[C@H](Cc3ccc(F)cc3)[C@@H](OC(=O)C(C)C)[C@H](C)OC2=O)c1O` [Compound F17] as the compound, how does the pest or weed control at 100 ppm read?
Answer: Its pest or weed control at 100 ppm is 80 to 100%.

Question: `COc1ccnc(C(=O)N[C@H]2CCC[C@H](CC3CCCC3)[C@@H](OC(=O)C(C)C)[C@H](C)OC2=O)c1OCOC(C)=O` [Compound F121] was tested. Which pest or weed control at 100 ppm did it give?
Answer: Its pest or weed control at 100 ppm is 80 to 100%.

Question: With `CCOCC(=O)OCOc1c(OC)ccnc1C(=O)N[C@H]1CCC[C@H](CCC(C)C)[C@@H](OC)[C@H](C)OC1=O` [Compound F163] as the compound, how does the pest or weed control at 100 ppm read?
Answer: The pest or weed control at 100 ppm was 80 to 100%.

Same assay, conditions: Zymoseptoria tritici, 24 h, 1 Day Protectant, rate 121.5 g/H; read-out: SEPTTR 1 DP disease control

Question: With `COc1ccnc(C(=O)N[C@H]2CCC[C@H](C)[C@@H](Oc3ccccc3)[C@H](C)OC2=O)c1OC(C)=O` [Compound F76] as the compound, how does the pest or weed control at 121.5 g/ha read?
Answer: Its pest or weed control at 121.5 g/ha is 80 to 100%.

Question: How did the pest or weed control at 121.5 g/ha turn out when `COc1ccnc(C(=O)N[C@H]2CCC[C@H](CC3CCCC3)[C@@H](OC(=O)C(C)C)[C@H](C)OC2=O)c1OCOC(C)=O` [Compound F121] was run?
Answer: The pest or weed control at 121.5 g/ha was 80 to 100%.

Question: `COc1ccnc(C(=O)N[C@H]2CCC[C@@H]3CCO[C@H]3[C@H](C)OC2=O)c1OC(C)=O` [Compound F85] was tested. Which pest or weed control at 121.5 g/ha did it give?
Answer: The pest or weed control at 121.5 g/ha was 0 to 80%.

Question: For `CCOCC(=O)OCOc1c(OC)ccnc1C(=O)N[C@H]1CCC[C@H](CCC(C)C)[C@@H](OC)[C@H](C)OC1=O` [Compound F163], which pest or weed control at 121.5 g/ha is on record?
Answer: The pest or weed control at 121.5 g/ha was 80 to 100%.

Same assay, conditions: Zymoseptoria tritici, 72 h, 3 Day Curative, rate 100 ppm; read-out: SEPTTR 3 DC disease control

Question: Which pest or weed control at 100 ppm does the source give for `COc1ccnc(C(=O)N[C@H]2CCC[C@H](Cc3ccc(F)cc3)[C@@H](OC(=O)C(C)C)[C@H](C)OC2=O)c1O` [Compound F17] here?
Answer: The pest or weed control at 100 ppm was 80 to 100%.

Question: `COc1ccnc(C(=O)N[C@H]2CCC[C@H](CC3CCCC3)[C@@H](OC(=O)C(C)C)[C@H](C)OC2=O)c1OCOC(C)=O` [Compound F121] was tested. Which pest or weed control at 100 ppm did it give?
Answer: Its pest or weed control at 100 ppm is 80 to 100%.

Question: How did the pest or weed control at 100 ppm turn out when `CCOCC(=O)OCOc1c(OC)ccnc1C(=O)N[C@H]1CCC[C@H](CCC(C)C)[C@@H](OC)[C@H](C)OC1=O` [Compound F163] was run?
Answer: Its pest or weed control at 100 ppm is 80 to 100%.

Same assay, conditions: Zymoseptoria tritici, 72 h, 3 Day Curative, rate 121.5 g/H; read-out: SEPTTR 3 DC disease control

Question: With `COc1ccnc(C(=O)N[C@H]2CCC[C@H](C)[C@@H](Oc3ccccc3)[C@H](C)OC2=O)c1OC(C)=O` [Compound F76] as the compound, how does the pest or weed control at 121.5 g/ha read?
Answer: Its pest or weed control at 121.5 g/ha is 80 to 100%.

Question: For `COc1ccnc(C(=O)N[C@H]2CCC[C@H](CC3CCCC3)[C@@H](OC(=O)C(C)C)[C@H](C)OC2=O)c1OCOC(C)=O` [Compound F121], which pest or weed control at 121.5 g/ha is on record?
Answer: Its pest or weed control at 121.5 g/ha is 80 to 100%.

Question: Which pest or weed control at 121.5 g/ha does the source give for `CCOCC(=O)OCOc1c(OC)ccnc1C(=O)N[C@H]1CCC[C@H](CCC(C)C)[C@@H](OC)[C@H](C)OC1=O` [Compound F163] here?
Answer: Its pest or weed control at 121.5 g/ha is 0 to 80%.

What follows are compounds tested on Phakopsora pachyrhizi (assay: Asian Soybean Rust (PHAKPA) disease control). Settings: Phakopsora pachyrhizi, topical, 24 h, 1 Day Protectant, read-out: Disease Control PHAKPA 1DP.
Assay type: in vivo
Protocol: Technical grades of materials were dissolved in acetone, which were then mixed with nine volumes of water containing 0.011% Tween 20. The fungicide solutions were applied onto soybean seedlings using an automated booth sprayer to run-off. All sprayed plants were allowed to air dry prior to further handling.
Soybean plants (variety Williams 82) were grown in soil-less Metro mix, with one plant per pot. Two weeks old seedlings were used for testing. Plants were inoculated either 3 days prior to or 1 day after fungicide treatments. Plants were incubated for 24 h in a dark dew room at 22° C. and 100% RH then transferred to a growth room at 23° C. for disease to develop. Disease severity was assessed on the sprayed leaves.

Question: With `COc1ccnc(C(=O)N[C@H]2CCC[C@H](C)[C@@H](Oc3ccccc3)[C@H](C)OC2=O)c1OC(C)=O` [Compound F76] as the compound, how does the pest or weed control at 25 ppm read?
Answer: Its pest or weed control at 25 ppm is 80 to 100%.

Question: With `COc1ccnc(C(=O)N[C@H]2CCC[C@H](CC3CCCC3)[C@@H](OC(=O)C(C)C)[C@H](C)OC2=O)c1OCOC(C)=O` [Compound F121] as the compound, how does the pest or weed control at 25 ppm read?
Answer: The pest or weed control at 25 ppm was 80 to 100%.

Same assay, conditions: Phakopsora pachyrhizi, topical, 72 h, 3 Day Curative, read-out: Disease Control PHAKPA 3DC

Question: Which pest or weed control at 25 ppm does the source give for `COc1ccnc(C(=O)N[C@H]2CCC[C@H](C)[C@@H](Oc3ccccc3)[C@H](C)OC2=O)c1OC(C)=O` [Compound F76] here?
Answer: Its pest or weed control at 25 ppm is 80 to 100%.

Question: How did the pest or weed control at 25 ppm turn out when `COc1ccnc(C(=O)N[C@H]2CCC[C@H](CC3CCCC3)[C@@H](OC(=O)C(C)C)[C@H](C)OC2=O)c1OCOC(C)=O` [Compound F121] was run?
Answer: Its pest or weed control at 25 ppm is 0 to 80%.

Each compound was assayed on Puccinia triticina; Synonym: Puccinia recondite f. Sp. Tritici (assay: Wheat Brown Rust (PUCCRT) disease control). Settings: Puccinia triticina, topical, 24 h, 1 Day Protectant, rate 100 ppm; read-out: PUCCRT 1 DP disease control.
Assay type: in vivo
Procedure, shortened: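 Brown rust on first-leaf Yuma wheat: spore inoculation before or after spray application (acetone/Triton X-100 solution, or EC with Trycol in track spray), overnight 100% RH at 22 °C, disease developed at 24 °C. Severity scored 0–100% and converted to percent control against untreated.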

Question: Which pest or weed control at 100 ppm does the source give for `CCCO[C@@H]1[C@@H](CC2CCCC2)CCC[C@H](NC(=O)c2nccc(OC)c2O)C(=O)O[C@H]1C` [Compound F36] here?
Answer: The pest or weed control at 100 ppm was 80 to 100%.

Question: With `COc1ccnc(C(=O)N[C@H]2CCC[C@H](Cc3ccc(F)cc3)[C@@H](OC(=O)C(C)C)[C@H](C)OC2=O)c1O` [Compound F17] as the compound, how does the pest or weed control at 100 ppm read?
Answer: The pest or weed control at 100 ppm was 80 to 100%.

Question: How did the pest or weed control at 100 ppm turn out when `COc1ccnc(C(=O)N[C@H]2CCC[C@H](CC3CCCC3)[C@@H](OC(=O)C(C)C)[C@H](C)OC2=O)c1OCOC(C)=O` [Compound F121] was run?
Answer: Its pest or weed control at 100 ppm is 80 to 100%.

Question: How did the pest or weed control at 100 ppm turn out when `CCOCC(=O)OCOc1c(OC)ccnc1C(=O)N[C@H]1CCC[C@H](CCC(C)C)[C@@H](OC)[C@H](C)OC1=O` [Compound F163] was run?
Answer: The pest or weed control at 100 ppm was 80 to 100%.

Same assay, conditions: Puccinia triticina, topical, 24 h, 1 Day Protectant, rate 121.5 g/H; read-out: PUCCRT 1 DP disease control

Question: Which pest or weed control at 121.5 g/ha does the source give for `COc1ccnc(C(=O)N[C@H]2CCC[C@H](C)[C@@H](Oc3ccccc3)[C@H](C)OC2=O)c1OC(C)=O` [Compound F76] here?
Answer: Its pest or weed control at 121.5 g/ha is 80 to 100%.

Question: Which pest or weed control at 121.5 g/ha does the source give for `COc1ccnc(C(=O)N[C@H]2CCC[C@H](CC3CCCC3)[C@@H](OC(=O)C(C)C)[C@H](C)OC2=O)c1OCOC(C)=O` [Compound F121] here?
Answer: Its pest or weed control at 121.5 g/ha is 80 to 100%.

Question: How did the pest or weed control at 121.5 g/ha turn out when `COc1ccnc(C(=O)N[C@H]2CCC[C@@H]3CCO[C@H]3[C@H](C)OC2=O)c1OC(C)=O` [Compound F85] was run?
Answer: Its pest or weed control at 121.5 g/ha is 80 to 100%.

Question: `CCOCC(=O)OCOc1c(OC)ccnc1C(=O)N[C@H]1CCC[C@H](CCC(C)C)[C@@H](OC)[C@H](C)OC1=O` [Compound F163] was tested. Which pest or weed control at 121.5 g/ha did it give?
Answer: The pest or weed control at 121.5 g/ha was 0 to 80%.

Same assay, conditions: Puccinia triticina, topical, 72 h, 3 Day Curative, rate 100 ppm; read-out: PUCCRT 3 DC disease control

Question: For `COc1ccnc(C(=O)N[C@H]2CCC[C@H](Cc3ccc(F)cc3)[C@@H](OC(=O)C(C)C)[C@H](C)OC2=O)c1O` [Compound F17], which pest or weed control at 100 ppm is on record?
Answer: The pest or weed control at 100 ppm was 0 to 80%.

Question: Which pest or weed control at 100 ppm does the source give for `COc1ccnc(C(=O)N[C@H]2CCC[C@H](CC3CCCC3)[C@@H](OC(=O)C(C)C)[C@H](C)OC2=O)c1OCOC(C)=O` [Compound F121] here?
Answer: Its pest or weed control at 100 ppm is 80 to 100%.

Question: `CCOCC(=O)OCOc1c(OC)ccnc1C(=O)N[C@H]1CCC[C@H](CCC(C)C)[C@@H](OC)[C@H](C)OC1=O` [Compound F163] was tested. Which pest or weed control at 100 ppm did it give?
Answer: Its pest or weed control at 100 ppm is 0 to 80%.

Same assay, conditions: Puccinia triticina, topical, 72 h, 3 Day Curative, rate 121.5 g/H; read-out: PUCCRT 3 DC disease control

Question: Which pest or weed control at 121.5 g/ha does the source give for `COc1ccnc(C(=O)N[C@H]2CCC[C@H](C)[C@@H](Oc3ccccc3)[C@H](C)OC2=O)c1OC(C)=O` [Compound F76] here?
Answer: Its pest or weed control at 121.5 g/ha is 80 to 100%.

Question: How did the pest or weed control at 121.5 g/ha turn out when `COc1ccnc(C(=O)N[C@H]2CCC[C@H](CC3CCCC3)[C@@H](OC(=O)C(C)C)[C@H](C)OC2=O)c1OCOC(C)=O` [Compound F121] was run?
Answer: Its pest or weed control at 121.5 g/ha is 80 to 100%.

Question: Which pest or weed control at 121.5 g/ha does the source give for `COc1ccnc(C(=O)N[C@H]2CCC[C@@H]3CCO[C@H]3[C@H](C)OC2=O)c1OC(C)=O` [Compound F85] here?
Answer: Its pest or weed control at 121.5 g/ha is 80 to 100%.

Question: How did the pest or weed control at 121.5 g/ha turn out when `CCOCC(=O)OCOc1c(OC)ccnc1C(=O)N[C@H]1CCC[C@H](CCC(C)C)[C@@H](OC)[C@H](C)OC1=O` [Compound F163] was run?
Answer: Its pest or weed control at 121.5 g/ha is 0 to 80%.
